Calls of active or inactive are those of the source. No cut-off for these calls is given here.
Assays:
Escherichia coli [1] = experiment: Potentiation of TPP-induced antibacterial activity against wild type Escherichia coli BW25113 assessed as fold reduction in TPP MIC at 256 ug/ml incubated for 18 hrs under aerobic condition by checkerboard titration assay relative to TPP MIC alone; assay type: functional; conditions: dose 256 µg/ml
Cell membrane [2] = experiment: Induction of outer membrane permeabilization in wild type Escherichia coli BW25113 assessed as increase in nitrocefin hydrolysis at 512 ug/ml measured for 30 mins in presence of CCCP by spectrophotometry analysis; assay type: subcellular; conditions: dose 512.0 µg/ml
Escherichia coli [3] = experiment: Potentiation of TPP-induced antibacterial activity against AcrB deficient Escherichia coli BW25113 assessed as TPP MIC at 512 ug/ml incubated for 18 hrs under aerobic condition by checkerboard titration assay (reference value: 256 ug/ml); assay type: functional; conditions: dose 512 µg/ml
Escherichia coli [4] = experiment: Potentiation of chloramphenicol-induced antibacterial activity against AcrB deficient Escherichia coli BW25113 assessed as chloramphenicol MIC at 512 ug/ml incubated for 18 hrs under aerobic condition by checkerboard titration assay (reference value: 2 ug/ml); assay type: functional; conditions: dose 512 µg/ml
Escherichia coli [5] = experiment: Potentiation of TPP-induced antibacterial activity against wild type Escherichia coli BW25113 assessed as TPP MIC at 256 ug/ml incubated for 18 hrs under aerobic condition by checkerboard titration assay (reference value: 1024 ug/ml); assay type: functional; conditions: dose 256 µg/ml
Escherichia coli [6] = experiment: Potentiation of TPP-induced antibacterial activity against wild type Escherichia coli BW25113 assessed as TPP MIC at 128 ug/ml incubated for 18 hrs under aerobic condition by checkerboard titration assay (reference value: 1024 ug/ml); assay type: functional; conditions: dose 128 µg/ml
Escherichia coli [7] = experiment: Potentiation of chloramphenicol-induced antibacterial activity against wild type Escherichia coli BW25113 assessed as chloramphenicol MIC at 256 ug/ml incubated for 18 hrs under aerobic condition by checkerboard titration assay (reference value: 16 ug/ml); assay type: functional; conditions: dose 256 µg/ml
Escherichia coli [8] = experiment: Potentiation of chloramphenicol-induced antibacterial activity against wild type Escherichia coli BW25113 assessed as chloramphenicol MIC at 128 ug/ml incubated for 18 hrs under aerobic condition by checkerboard titration assay (reference value: 16 ug/ml); assay type: functional; conditions: dose 128 µg/ml
Escherichia coli [9] = experiment: Potentiation of rifampicin-induced antibacterial activity against wild type Escherichia coli BW25113 assessed as rifampicin MIC at 128 ug/ml incubated for 18 hrs under aerobic condition by checkerboard titration assay (reference value: 16 ug/ml); assay type: functional; conditions: dose 128 µg/ml
Escherichia coli [10] = experiment: Potentiation of rifampicin-induced antibacterial activity against wild type Escherichia coli BW25113 assessed as rifampicin MIC at 256 ug/ml incubated for 18 hrs under aerobic condition by checkerboard titration assay (reference value: 16 ug/ml); assay type: functional; conditions: dose 256 µg/ml
Cell membrane [11] = experiment: Disruption of inner membrane potential in wild type Escherichia coli BW25113 at 512 ug/ml preincubated for 10 mins followed by glucose stimulation and CCCP addition by DiOC2 probe based fluorimetric analysis; assay type: subcellular; conditions: dose 512.0 µg/ml
Escherichia coli [12] = experiment: Potentiation of erythromycin-induced antibacterial activity against wild type Escherichia coli BW25113 assessed as erythromycin MIC at 256 ug/ml incubated for 18 hrs under aerobic condition by checkerboard titration assay (reference value: 128 ug/ml); assay type: functional; conditions: dose 256 µg/ml
Escherichia coli [13] = experiment: Potentiation of erythromycin-induced antibacterial activity against wild type Escherichia coli BW25113 assessed as erythromycin MIC at 128 ug/ml incubated for 18 hrs under aerobic condition by checkerboard titration assay (reference value: 128 ug/ml); assay type: functional; conditions: dose 128 µg/ml
Escherichia coli [14] = experiment: (§1) Antibacterial activity against Wild type Escherichia coli BW25113 assessed as inhibition of AcrB efflux pump by mesuring the glucose-induced nile red efflux at 500 uM preincubated with CCCP for 15 mins followed by compound addition after 15 mins nile red added and incubated for 3 hrs in shaker by fluorimetric analysis; assay type: functional, organism-based; conditions: time 195.0 min
Escherichia coli [15] = experiment: Potentiation of chloramphenicol-induced antibacterial activity against AcrB deficient Escherichia coli BW25113 assessed as chloramphenicol MIC at 256 ug/ml incubated for 18 hrs under aerobic condition by checkerboard titration assay (reference value: 2 ug/ml); assay type: functional; conditions: dose 256 µg/ml
Escherichia coli [16] = experiment: Potentiation of TPP-induced antibacterial activity against AcrB deficient Escherichia coli BW25113 assessed as TPP MIC at 256 ug/ml incubated for 18 hrs under aerobic condition by checkerboard titration assay (reference value: 256 ug/ml); assay type: functional; conditions: dose 256 µg/ml
Escherichia coli [17] = experiment: Potentiation of rifampicin-induced antibacterial activity against wild type Escherichia coli BW25113 assessed as rifampicin MIC at 512 ug/ml incubated for 18 hrs under aerobic condition by checkerboard titration assay (reference value: 16 ug/ml); assay type: functional; conditions: dose 512 µg/ml
Escherichia coli [18] = experiment: Potentiation of TPP-induced antibacterial activity against wild type Escherichia coli BW25113 assessed as TPP MIC at 512 ug/ml incubated for 18 hrs under aerobic condition by checkerboard titration assay (reference value: 1024 ug/ml); assay type: functional; conditions: dose 512 µg/ml
Escherichia coli [19] = experiment: Potentiation of chloramphenicol-induced antibacterial activity against wild type Escherichia coli BW25113 assessed as chloramphenicol MIC at 512 ug/ml incubated for 18 hrs under aerobic condition by checkerboard titration assay (reference value: 16 ug/ml); assay type: functional; conditions: dose 512 µg/ml
Escherichia coli [20] = experiment: Potentiation of erythromycin-induced antibacterial activity against wild type Escherichia coli BW25113 assessed as erythromycin MIC at 512 ug/ml incubated for 18 hrs under aerobic condition by checkerboard titration assay (reference value: 128 ug/ml); assay type: functional; conditions: dose 512 µg/ml
Escherichia coli [21] = experiment: Potentiation of erythromycin-induced antibacterial activity against AcrB deficient Escherichia coli BW25113 assessed as erythromycin MIC at 256 ug/ml incubated for 18 hrs under aerobic condition by checkerboard titration assay (reference value: 32 ug/ml); assay type: functional; conditions: dose 256 µg/ml
Escherichia coli [22] = experiment: Antibacterial activity against AcrB deficient Escherichia coli BW25113 assessed as inhibition of bacterial growth at 256 ug/ml after 18 hrs by microtitre broth dilution assay; assay type: functional, organism-based; conditions: dose 256.0 µg/ml
Escherichia coli [23] = experiment: Antibacterial activity against wild type Escherichia coli BW25113 assessed as inhibition of bacterial growth at 256 ug/ml after 18 hrs by microtitre broth dilution assay; assay type: functional, organism-based; conditions: dose 256.0 µg/ml
Escherichia coli [24] = experiment: Potentiation of chloramphenicol-induced antibacterial activity against wild type Escherichia coli BW25113 assessed as fold reduction in chloramphenicol MIC at 128 ug/ml incubated for 18 hrs under aerobic condition by checkerboard titration assay relative to chloramphenicol MIC alone; assay type: functional; conditions: dose 128 µg/ml
Escherichia coli [25] = experiment: as §1, with “100” for “500”; assay type: functional, organism-based; conditions: time 195.0 min
Escherichia coli [26] = experiment: Potentiation of TPP-induced antibacterial activity against AcrB deficient Escherichia coli BW25113 assessed as TPP MIC at 128 ug/ml incubated for 18 hrs under aerobic condition by checkerboard titration assay (reference value: 256 ug/ml); assay type: functional; conditions: dose 128 µg/ml
Escherichia coli [27] = experiment: Potentiation of chloramphenicol-induced antibacterial activity against AcrB deficient Escherichia coli BW25113 assessed as chloramphenicol MIC at 128 ug/ml incubated for 18 hrs under aerobic condition by checkerboard titration assay (reference value: 2 ug/ml); assay type: functional; conditions: dose 128 µg/ml
Escherichia coli [28] = experiment: Potentiation of erythromycin-induced antibacterial activity against AcrB deficient Escherichia coli BW25113 assessed as erythromycin MIC at 128 ug/ml incubated for 18 hrs under aerobic condition by checkerboard titration assay (reference value: 32 ug/ml); assay type: functional; conditions: dose 128 µg/ml
Escherichia coli [29] = experiment: Potentiation of erythromycin-induced antibacterial activity against wild type Escherichia coli BW25113 assessed as fold reduction in erythromycin MIC at 128 ug/ml incubated for 18 hrs under aerobic condition by checkerboard titration assay relative to erythromycin MIC alone; assay type: functional; conditions: dose 128 µg/ml

Activity (Cell membrane [2])	MIC (Escherichia coli [5])	MIC (Escherichia coli [6])	MIC (Escherichia coli [7])	MIC (Escherichia coli [8])	MIC (Escherichia coli [9])	MIC (Escherichia coli [10])	Activity (Cell membrane [11])	MIC (Escherichia coli [12])	MIC (Escherichia coli [13])	MIC (Escherichia coli [15])	MIC (Escherichia coli [16])	MIC (Escherichia coli [21])	Compound	fold change (FC) (Escherichia coli [1])	Activity (Escherichia coli [14])	Activity (Escherichia coli [22])	Activity (Escherichia coli [23])	other results
Active	256 µg/mL	1020 µg/mL	4 µg/mL	8 µg/mL	16 µg/mL	4 µg/mL	Active	128 µg/mL	128 µg/mL				CCCCCCNC(=O)c1cc(OCc2ccccc2)c2ccccc2c1	4				MIC (Escherichia coli [3]): 256 µg/mL; MIC (Escherichia coli [4]): 2 µg/mL
Active	512 µg/mL	1020 µg/mL	16 µg/mL	16 µg/mL	16 µg/mL	16 µg/mL	inactive	128 µg/mL	128 µg/mL	1 µg/mL	256 µg/mL	16 µg/mL	NC(=O)c1cc(OCCNCc2ccco2)c2ccccc2c1			Active	inactive	
Active		1020 µg/mL		4 µg/mL	8 µg/mL		inactive		16 µg/mL	1 µg/mL	128 µg/mL	8 µg/mL	NC(=O)c1cc(OCCNC2CCCCC2)c2ccccc2c1			Active	Active	fold change (FC) (Escherichia coli [24]): 8; Activity (Escherichia coli [25]): Active; MIC (Escherichia coli [26]): 256 µg/mL; MIC (Escherichia coli [27]): 2 µg/mL; MIC (Escherichia coli [28]): 16 µg/mL; fold change (FC) (Escherichia coli [29]): 8

Continued, compound first:

Compound	Activity (Cell membrane [2])	MIC (Escherichia coli [5])	MIC (Escherichia coli [6])	MIC (Escherichia coli [7])	MIC (Escherichia coli [8])	MIC (Escherichia coli [9])	MIC (Escherichia coli [10])	Activity (Cell membrane [11])	MIC (Escherichia coli [12])	MIC (Escherichia coli [13])	MIC (Escherichia coli [15])	MIC (Escherichia coli [16])	MIC (Escherichia coli [21])	fold change (FC) (Escherichia coli [1])	Activity (Escherichia coli [14])	Activity (Escherichia coli [22])	Activity (Escherichia coli [23])	other results
O=C(Nc1ccccc1)c1cc(OCc2ccccc2)c2ccccc2c1	Active	1020 µg/mL		16 µg/mL			16 µg/mL	Active	128 µg/mL		2 µg/mL	256 µg/mL			Active			MIC (Escherichia coli [17]): 8 µg/mL; MIC (Escherichia coli [18]): 512 µg/mL; MIC (Escherichia coli [19]): 16 µg/mL; MIC (Escherichia coli [20]): 128 µg/mL
O=C(NCc1ccccc1Cl)c1cc(OCc2ccccc2)c2ccccc2c1	Active	256 µg/mL	1020 µg/mL	4 µg/mL	16 µg/mL	16 µg/mL	4 µg/mL	Active	64 µg/mL	128 µg/mL	2 µg/mL	256 µg/mL	32 µg/mL	4	Active			

From ChEMBL document CHEMBL4715814, “Design, synthesis and biological activity evaluation of novel 4-subtituted 2-naphthamide derivatives as AcrB inhibitors” (2018)
